Measurements published in patent US11076594B2, “Pyrazolone compound or salt thereof, preparation method therefor, herbicide composition and use thereof” (QINGDAO KINGAGROOT CHEMICAL COMPOUNDS CO., LTD., priority 2015, dated 2021).

Experiments:
Format in all cases: in vivo
echinochloa = experiment: weed control effect in post-emergence stage (Table 1); design: key: Level 10: completely dead; Level 9: above 95% growth control rate; Level 8: above 90% growth control rate; Level 7: above 80% growth control rate; Level 6: above 70% growth control rate; Level 5: above 60% growth control rate; Level 4: above 50% growth control rate; Level 3: above 20% growth control rate; Level 2: 5%-20% growth control rate; Level 1: below 5% growth control rate; settings: post-emergence spray at 4-5 leaf stage, 250 g/ha active ingredient with 450 kg/ha water, rated after 3 weeks in greenhouse
How it was run: (§1)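 Seeds were sown in pots, covered with 0.5-2 cm soil and grown in a greenhouse. At the 4-5 leaf stage, plants were sprayed with the test compound formulated in acetone, Tween 80 and water. Fresh weight control was rated after 3 weeks.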

rice = experiment: post-emergence stage experiment, crop (Table 1); settings: post-emergence spray at 4-5 leaf stage, 250 g/ha active ingredient with 450 kg/ha water, rated after 3 weeks in greenhouse
How it was run: as §1

alopecurus japonicas = experiment: wheat field resistant weed control, greenhouse spray at 4 leaf stage; design: key: Level 10: completely dead; Level 9: above 95% growth control rate; Level 8: above 90% growth control rate; Level 7: above 80% growth control rate; Level 6: above 70% growth control rate; Level 5: above 60% growth control rate; Level 4: above 50% growth control rate; Level 3: above 20% growth control rate; Level 2: 5%-20% growth control rate; Level 1: below 5% growth control rate; settings: sprayed at 4 leaf stage, 4 weeks after treatment, resistant to ALS and ACCase inhibitor herbicides
How it was run: (§2)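 Compounds in acetone were mixed with methyl oleate emulsion, diluted with water and applied with a sprayer to greenhouse plants at the 4 leaf stage. Growth control, expressed as fresh weight control rate, was assessed after 4 weeks of further culture.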

rice (japonica rice) = experiment: transplanted rice safety evaluation; settings: 125 g/ha ai; treated 5 days after transplantation; 21 days after treatment
How it was run: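 Japonica rice at the 3-leaf stage was transplanted 3 cm deep into flooded paddy soil (water 3-4 cm) and treated with compound 5 days after transplanting. Crop growth condition was scored visually 21 days after treatment.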

chickweed = experiment: wheat field resistant broadleaf weed control, greenhouse spray at 4 leaf stage; design: key: Level 10: completely dead; Level 9: above 95% growth control rate; Level 8: above 90% growth control rate; Level 7: above 80% growth control rate; Level 6: above 70% growth control rate; Level 5: above 60% growth control rate; Level 4: above 50% growth control rate; Level 3: above 20% growth control rate; Level 2: 5%-20% growth control rate; Level 1: below 5% growth control rate; settings: 250 g/ha of the active substance; 4 weeks after treatment; ALS inhibitor resistant
How it was run: as §2

corn gromwell = experiment: as above; design: key: Level 10: completely dead; Level 9: above 95% growth control rate; Level 8: above 90% growth control rate; Level 7: above 80% growth control rate; Level 6: above 70% growth control rate; Level 5: above 60% growth control rate; Level 4: above 50% growth control rate; Level 3: above 20% growth control rate; Level 2: 5%-20% growth control rate; Level 1: below 5% growth control rate; settings: 250 g/ha of the active substance; 4 weeks after treatment; ALS inhibitor resistant
How it was run: as §2

flixweed = experiment: as above; design: key: Level 10: completely dead; Level 9: above 95% growth control rate; Level 8: above 90% growth control rate; Level 7: above 80% growth control rate; Level 6: above 70% growth control rate; Level 5: above 60% growth control rate; Level 4: above 50% growth control rate; Level 3: above 20% growth control rate; Level 2: 5%-20% growth control rate; Level 1: below 5% growth control rate; settings: 250 g/ha of the active substance; 4 weeks after treatment; ALS inhibitor resistant
How it was run: as §2

shepherd's purse = experiment: as above; design: key: Level 10: completely dead; Level 9: above 95% growth control rate; Level 8: above 90% growth control rate; Level 7: above 80% growth control rate; Level 6: above 70% growth control rate; Level 5: above 60% growth control rate; Level 4: above 50% growth control rate; Level 3: above 20% growth control rate; Level 2: 5%-20% growth control rate; Level 1: below 5% growth control rate; settings: 250 g/ha of the active substance; 4 weeks after treatment; ALS inhibitor resistant
How it was run: as §2

Structure (SMILES)	weed control effect, Echinochloa (level) (echinochloa)	effect on crop, Rice (level) (rice)	Alopecurus japonicas weed controlling effect (activity level) (alopecurus japonicas; 1 g/mu)	Alopecurus japonicas weed controlling effect (activity level) (alopecurus japonicas; 2 g/mu)	Alopecurus japonicas weed controlling effect (activity level) (alopecurus japonicas; 4 g/mu)	Alopecurus japonicas weed controlling effect (activity level) (alopecurus japonicas; 8 g/mu)	Rice (activity level, transplanted rice safety) (rice (japonica rice))	chickweed weed controlling effect (activity level) (chickweed)	corn gromwell weed controlling effect (activity level) (corn gromwell)	flixweed weed controlling effect (activity level) (flixweed)	shepherd's purse weed controlling effect (activity level) (shepherd's purse)
Cc1nn(C)cc1C(=O)Oc1c(C(=O)c2ccc(C(F)(F)F)c(N3CCCC3=O)c2Cl)c(C)nn1C [Compound 023]	10	4 (Level 4: above 50% growth control rate)	1 (Level 1: below 5% growth control rate)	6 (Level 6: above 70% growth control rate)	8 (Level 8: above 90% growth control rate)	10	0				
Cc1nn(C)c(O)c1C(=O)c1ccc(C(F)(F)F)c(N2CCCCC2=O)c1Cl [Compound 035]	7 (Level 7: above 80% growth control rate)	6 (Level 6: above 70% growth control rate)	0	2 (Level 2: 5%-20% growth control rate)	6 (Level 6: above 70% growth control rate)	6 (Level 6: above 70% growth control rate)	0				
CCOc1c(C(=O)Oc2c(C(=O)c3ccc(C(F)(F)F)c(N4CCCCC4=O)c3Cl)c(C)nn2C)cnn1C [Compound 037]	10	3 (Level 3: above 20% growth control rate)					2 (Level 2: 5%-20% growth control rate)	10	10	10	10
CCOc1c(C(=O)Oc2c(C(=O)c3ccc(C(F)(F)F)c(-n4cccn4)c3Cl)c(C)nn2C)cnn1C [Compound 071]	6 (Level 6: above 70% growth control rate)	1 (Level 1: below 5% growth control rate)					0	10	10	10	10
CCOc1c(C(=O)Oc2c(C(=O)c3ccc(C(F)(F)F)c(-n4cc(C)cn4)c3Cl)cnn2C)cnn1C [Compound 081]	10	3 (Level 3: above 20% growth control rate)					1 (Level 1: below 5% growth control rate)	10	10	10	10
CCOc1c(C(=O)Oc2c(C(=O)c3ccc(C(F)(F)F)c(-n4cc(C)cn4)c3Cl)c(C3CC3)nn2C)cnn1C [Compound 092]	6 (Level 6: above 70% growth control rate)	2 (Level 2: 5%-20% growth control rate)					0	10	10	10	10
CCn1nc(C)c(C(=O)c2ccc(C(F)(F)F)c(-n3cccn3)c2Cl)c1OC(=O)c1cn(C)nc1C [Compound 129]	10	6 (Level 6: above 70% growth control rate)					2 (Level 2: 5%-20% growth control rate)	10	10	10	10
